In this test the test system is OP9 cells. In words: Test of myricetin promoting osteocalcin secretion. The note with it: 0.03125 mg/mL in differentiation culture medium, 7 days; blank group taken as 100%; ELISA of supernatant. The format is cell-based, Murine. An excerpt:
Experimental cell line: Murine bone marrow stromal cells (hereinafter referred to as OP9 cells) were used, and the OP9 cells were purchased from OP9 cell lines (ATCC CRL-2749™) from the American Type Culture Collection (ATCC®). Cell culture medium: It included […] (Minimum Essential Medium Alpha Medium, purchased from Gibco, product number: Cat. 12000-022), 20% of Fetal Bovine Serum (purchased from Gibco, Cat. 10437-028), and 1% of Penicillin-streptomycin (purchased from Gibco, Cat. 15240-062). Differentiation culture medium: It included 90% of DMEM (Dulbecco's modified Eagle's medium, purchased from Gibco, Cat. 12100-038) added with additional ingredients to make it include 10% of FBS (fetal bovine Serum, purchased from Gibco, 10438-026) and 1% of penicillin-streptomycin (purchased from Gibco, Cat. 15140122), 50 μM of ascorbic acid (purchased from Sigma), 10^−7 M of dexamethasome (purchased from Sigma), and 10 mM of β-glycerol (purchased from Sigma). ELISA Kit for Osteocalcin (OC): Brand: USCN; model: SEA471Mu. Flow cytometer: Purchased from BD Pharmingen Company, model: BDTM Accuri C6 Plus. […] The content of osteocalcin in the supernatant to be detected in each well was measured by the […] to promote osteocalcin secretion analysis. […]
In general terms: An ELISA detects its analyte on a solid surface through an enzyme-linked reagent.

As to `O=c1c(O)c(-c2cc(O)c(O)c(O)c2)oc2cc(O)cc(O)c12` [myricetin], the relative osteocalcin secretion was determined as 121.39%.

Source of the values: patent US20240261354A1, “METHODS FOR IMPROVING BONE QUALITY AND PROMOTING CARTILAGE DIFFERENTIATION BY CHRYSOPHYLLUM CAINITO EXTRACT AND MANUFACTURING METHOD THEREOF” (TCI CO., LTD., priority 2023, published 2024).
